Results reported in patent publication US9730940B2, “Purine inhibitors of human phosphatidylinositol 3-kinase delta” (priority 2012, dated 2017).

The compounds below were run against PI3K-alpha (Homo sapiens (Human), UniProt P42336) (assay: HTRF PI3K biochemical assay, alpha isoform). Details: ratio PI3K-alpha IC50 value/PI3K-delta IC50 value.
Text: HTRF PI3K Biochemical Assay to Measure Intrinsic Potency of Compound Inhibitors
The PI3-Kinase biochemical assays were developed to measure the intrinsic potency and compound dependent inhibition of the alpha, beta, delta, and gamma PI3K isoform enzymes. This assay was developed and further optimized from a kit produced by Upstate (Millipore catalog #33-047) and has been configured for HTS and SAR screening. Briefly, this procedure exploits the exquisite specificity and high affinity binding of enzyme reaction substrate phosphatidyl(3,4,5)triphosphate (PIP3) to the GRP1 pleckstrin homology (PH) domain to generate the signal. In the absence of PIP3, an HTRF (Homogeneous Time-Resolved Fluorescence energy transfer) complex is formed consisting of europium (Eu)-labeled anti-GST, GST tagged GRP1-PH domain, biotin-PIP3 and streptavidin conjugated APC. The native PIP3 produced by PI3-Kinase activity disrupts in a competitive manner the biotin-PIP3 from the PH domain, resulting in the loss of energy transfer (HTRF complex) and a decrease in the signal. The format of this assay is the same for all 4 isoforms of PI3K; the differences lie in the concentration of enzyme used to achieve robust assay window. The alpha, beta, and delta assays are run at 0.5, 1, and 0.3 nM enzymes and the gamma assay is run at 5 nM enzyme. The ATP concentration is 100 uM in the alpha, beta, and delta assays and 50 uM ATP in the gamma assay. All reactions are run at 5 uM PIP2.
Compounds are serially diluted (3-fold in 100% DMSO) across a 384-well polypropylene source plated from column 3 to column 12 and column 13 to column 22, to yield 10 concentration dose response for each test compound. Columns 1, 2, 23 and 24 contain either only DMSO or pharmacological known control inhibitor.
The PI3-Kinase biochemical assay was optimized using the HTRF kit provided by Upstate (Millipore). The assay kit contains six reagents: 1) 4× Reaction Buffer; 2) native PIP2 (substrate); 3) Stop (EDTA); 4) Detection Mix A (Streptavidin-APC); 5) Detection Mix B (Eu-labeled Anti-GST plus GST-tagged PH-domain); 6) Detection Mix C.
PI3Kinase Reaction Buffer is prepared by dilution the stock 1:4 with de-ionized water. […] Enzyme addition and compound pre-incubation are initiated by the addition of 1.25 ul of PI3K (at twice its final concentration) in the 1× reaction buffer to all wells using a BioRaptor. Plates are incubated at room temperature for 15 minutes. Reactions are initiated by addition of 1.25 ul of 2× substrate solution (PIP2 and ATP in 1× reaction buffer) using BioRaptor. Plates are incubated in humidified chamber at room temperature for one hour. Reactions are quenched by addition of 0.625 uL of stop solution to all wells using the BioRaptor. The quenched reactions are then processed to detect product formation by adding 0.625 uL of Detection Solution to all wells using the BioRaptor (Detection mix C, Detection Mix A, and Detection Mix B combined together in an 18:1:1 ratio prepared 2 hours prior to use).
The loss of the HTRF signal is due to the displacement of biotinylated-PIP3 from the PH domain by the PI3K-dependent conversion of PIP2 to PIP3. This loss of signal is nonlinear with respect to both increasing product and time. This non-linear detection will impact accuracy of IC50 calculations; therefore, there is a need for a correction factor to obtain more accurate IC50 values. This correction is derived from a PIP3 standard curve run in a separate assay plate. All data were calculated using the ratio of acceptor (APC) to donor (Europium) fluorescence in each well of the assay plate. […] An IC50 was then calculated fitting the % inhibition data to the equation: % inhibition=min+(Max−min)/1+([inhibitor]/IC50)^n) where min is the % inhibition […], max is the signal in DMSO control, and n is the Hill slope.

Sequence of PI3K-alpha (P42336 whole entry, looked up, canonical isoform): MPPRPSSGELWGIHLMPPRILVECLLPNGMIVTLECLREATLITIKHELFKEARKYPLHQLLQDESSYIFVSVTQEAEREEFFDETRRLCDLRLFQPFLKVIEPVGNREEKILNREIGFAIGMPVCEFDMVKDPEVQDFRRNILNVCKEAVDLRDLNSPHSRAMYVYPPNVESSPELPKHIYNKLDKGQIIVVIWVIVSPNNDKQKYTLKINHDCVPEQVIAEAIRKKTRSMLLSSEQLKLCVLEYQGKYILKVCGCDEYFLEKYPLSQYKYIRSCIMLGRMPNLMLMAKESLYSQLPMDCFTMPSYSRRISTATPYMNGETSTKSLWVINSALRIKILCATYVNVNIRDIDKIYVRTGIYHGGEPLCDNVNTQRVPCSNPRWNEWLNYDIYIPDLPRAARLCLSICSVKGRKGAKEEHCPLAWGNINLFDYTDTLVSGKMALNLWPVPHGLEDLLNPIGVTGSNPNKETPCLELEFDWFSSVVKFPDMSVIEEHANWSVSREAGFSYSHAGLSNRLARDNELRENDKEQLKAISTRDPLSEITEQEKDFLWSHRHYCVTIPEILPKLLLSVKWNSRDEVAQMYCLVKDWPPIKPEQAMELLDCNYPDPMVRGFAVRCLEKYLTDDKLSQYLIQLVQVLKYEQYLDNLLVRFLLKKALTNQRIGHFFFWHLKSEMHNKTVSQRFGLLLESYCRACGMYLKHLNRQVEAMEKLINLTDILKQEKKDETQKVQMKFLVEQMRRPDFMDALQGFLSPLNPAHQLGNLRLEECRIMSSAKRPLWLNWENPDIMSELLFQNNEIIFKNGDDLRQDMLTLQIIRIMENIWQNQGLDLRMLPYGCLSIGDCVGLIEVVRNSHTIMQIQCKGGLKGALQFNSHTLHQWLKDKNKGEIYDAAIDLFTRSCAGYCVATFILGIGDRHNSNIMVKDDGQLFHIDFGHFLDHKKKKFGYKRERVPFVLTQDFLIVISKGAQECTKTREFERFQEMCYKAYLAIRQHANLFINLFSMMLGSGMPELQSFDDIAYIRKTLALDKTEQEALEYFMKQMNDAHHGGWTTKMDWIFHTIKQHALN
Sequence of PI3K-alpha (P27986 whole entry partner, looked up, canonical isoform): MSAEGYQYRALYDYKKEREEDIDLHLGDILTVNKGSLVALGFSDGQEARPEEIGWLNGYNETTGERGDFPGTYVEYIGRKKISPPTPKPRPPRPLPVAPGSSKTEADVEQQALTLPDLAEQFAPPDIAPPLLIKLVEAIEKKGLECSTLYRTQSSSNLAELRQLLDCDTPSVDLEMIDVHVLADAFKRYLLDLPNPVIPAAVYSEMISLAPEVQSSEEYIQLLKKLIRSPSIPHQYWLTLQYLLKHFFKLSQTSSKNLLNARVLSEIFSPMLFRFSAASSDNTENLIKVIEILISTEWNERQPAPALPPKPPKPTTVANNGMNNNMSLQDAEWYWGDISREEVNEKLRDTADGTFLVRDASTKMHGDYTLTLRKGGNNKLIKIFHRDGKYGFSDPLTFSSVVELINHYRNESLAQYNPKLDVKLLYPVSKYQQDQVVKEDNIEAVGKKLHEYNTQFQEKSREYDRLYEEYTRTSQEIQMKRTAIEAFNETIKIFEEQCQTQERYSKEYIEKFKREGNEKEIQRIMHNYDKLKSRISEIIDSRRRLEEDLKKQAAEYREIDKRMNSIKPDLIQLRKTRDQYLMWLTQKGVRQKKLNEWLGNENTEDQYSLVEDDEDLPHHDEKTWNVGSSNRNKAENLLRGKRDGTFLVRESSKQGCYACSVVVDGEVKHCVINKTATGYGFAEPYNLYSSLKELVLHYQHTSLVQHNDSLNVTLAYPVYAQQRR

| Structure (SMILES) | Relative Selectivity versus PI3Kalpha |
| --- | --- |
| CCn1c(-c2cnc(C)nc2)nc2c(OC3CN(C(=O)C4CC4)CC3C(F)F)ncnc21 (single isomer, unassigned) [Compound 3-66, cyclopropyl([(3R,4S) or (3S,4R)]-3-(difluoromethyl)-4-((9-ethyl-8-(2-methylpyrimidin-5-yl)-9H-purin-6-yl)oxy)pyrrolidin-1-yl)methanone] | >10 |
| CCn1c(-c2cnc(C)nc2)nc2c(OC3CN(C(=O)C4CC4)CC3C(F)F)ncnc21 (single isomer, unassigned) [Compound 3-67, cyclopropyl([(3R,4S) or (3S,4R)]-3-(difluoromethyl)-4-((9-ethyl-8-(2-methylpyrimidin-5-yl)-9H-purin-6-yl)oxy)pyrrolidin-1-yl)methanone] | >10 |
| CCn1c(-c2cnc(C)nc2)nc2c(OC3CN(C(=O)C4CC4)CC3CF)ncnc21 (single isomer, unassigned) [Compound 3-68, cyclopropyl([(3S,4R) or (3R,4S)]-3-((9-ethyl-8-(2-methylpyrimidin-5-yl)-9H-purin-6-yl)oxy)-4-(fluoromethyl)pyrrolidin-1-yl)methanone] | >10 |
| CCn1c(-c2cnc(C)nc2)nc2c(OC3CN(C(=O)C4CC4)CC3CF)ncnc21 (single isomer, unassigned) [Compound 3-69, cyclopropyl([(3S,4R) or (3R,4S)]-3-((9-ethyl-8-(2-methylpyrimidin-5-yl)-9H-purin-6-yl)oxy)-4-(fluoromethyl)pyrrolidin-1-yl)methanone] | >10 |
| CCn1c(-c2cnc(C)nc2)nc2c(OC3CCC(NC(=O)C4CCOCC4)C3)ncnc21 (single isomer, unassigned) [Compound 9-9, N-[(1S,3S) or (1R,3R)]-(3-{[9-ethyl-8-(2-methylpyrimidin-5-yl)-9H-purin-6-yl]oxy}cyclopentyl)tetrahydro-2H-pyran-4-carboxamide] | >10 |
| CCn1ncc(-c2nc3c(O[C@H]4CCN(C(=O)OC(C)(C)C)C4)ncnc3n2C)c1C [Compound 1-1, tert-butyl (3S)-3-{[8-(1-ethyl-5-methyl-1H-pyrazol-4-yl)-9-methyl-9H-purin-6-yl]oxy}pyrrolidine-1-carboxylate] | >10 |
| CCn1ncc(-c2nc3c(O[C@H]4CCNC4)ncnc3n2C)c1C [Compound 1-2, 8-(1-ethyl-5-methyl-1H-pyrazol-4-yl)-9-methyl-6-[(3S)-pyrrolidin-3-yloxy]-9H-purine] | >5 |
| CCn1c(-c2cnc(C)nc2)nc2c(O[C@H]3CCN(C(=O)OC(C)(C)C)C3)ncnc21 [Compound 1-3, (S)-tert-butyl 3-(9-ethyl-8-(2-methylpyrimidin-5-yl)-9H-purin-6-yloxy)pyrrolidine-1-carboxylate] | >10 |
| CCn1ncc(-c2nc3c(O[C@H]4CCN(C(=O)OCC(C)C)C4)ncnc3n2C)c1C [Compound 1-4, 2-methylpropyl (3S)-3-{[8-(1-ethyl-5-methyl-1H-pyrazol-4-yl)-9-methyl-9H-purin-6-yl]oxy}pyrrolidine-1-carboxylate] | >10 |
| CCn1ncc(-c2nc3c(O[C@H]4CCN(C(=O)OCc5ccccc5)C4)ncnc3n2C)c1C [Compound 1-6, benzyl (3S)-3-{[8-(1-ethyl-5-methyl-1H-pyrazol-4-yl)-9-methyl-9H-purin-6-yl]oxy}pyrrolidine-1-carboxylate] | 4 |
| CCn1ncc(-c2nc3c(O[C@H]4CCN(C(=O)OCC(C)(C)C)C4)ncnc3n2C)c1C [Compound 1-9, 2,2-dimethylpropyl (3S)-3-{[8-(1-ethyl-5-methyl-1H-pyrazol-4-yl)-9-methyl-9H-purin-6-yl]oxy}pyrrolidine-1-carboxylate] | >10 |
| COc1ncc(-c2nc3c(O[C@H]4CCN(C(=O)OC(C)(C)C)C4)ncnc3n2C)cc1C [Compound 1-13, tert-butyl (3S)-3-{[8-(6-methoxy-5-methylpyridin-3-yl)-9-methyl-9H-purin-6-yl]oxy}pyrrolidine-1-carboxylate] | >10 |
| Cc1ncc(-c2nc3c(OC4CCN(C(=O)OC(C)(C)C)C4)ncnc3n2C)cn1 [Compound 1-14, terl-butyl (3S)-3-{[9-methyl-8-(2-methylpyrimidin-5-yl)-9H-purin-6-yl]oxy}pyrrolidine-1-carboxylate] | >10 |
| Cn1c(-c2ccc(-n3cccn3)cc2)nc2c(O[C@H]3CCN(C(=O)OC(C)(C)C)C3)ncnc21 [Compound 1-15, tert-butyl (3S)-3-({9-methyl-8-[4-(1H-pyrazol-1-yl)phenyl]-9H-purin-6-yl}oxy)pyrrolidine-1-carboxylate] | >10 |
| Cc1nn(C)cc1-c1nc2c(O[C@H]3CCN(C(=O)OC(C)(C)C)C3)ncnc2n1C [Compound 1-16, tert-butyl (3S)-3-{[8-(1,3-dimethyl-1H-pyrazol-4-yl)-9-methyl-9H-purin-6-yl]oxy}pyrrolidine-1-carboxylate] | >9 |
| Cc1ncc(-c2nc3c(O[C@H]4CCN(C(=O)OC(C)(C)C)C4)ncnc3n2C)n1C [Compound 1-17, tert-butyl (3S)-3-{[8-(1,2-dimethyl-1H-imidazol-5-yl)-9-methyl-9H-purin-6-yl]oxy}pyrrolidine-1-carboxylate] | >10 |
| Cn1c(-c2ccc(O)cc2)nc2c(O[C@H]3CCN(C(=O)OC(C)(C)C)C3)ncnc21 [Compound 1-18, tert-butyl (3S)-3-{[8-(4-hydroxyphenyl)-9-methyl-9H-purin-6-yl]oxy}pyrrolidine-1-carboxylate] | >10 |
| Cn1c(-c2cn[nH]c2)nc2c(O[C@H]3CCN(C(=O)OC(C)(C)C)C3)ncnc21 [Compound 1-19, tert-butyl (3S)-3-{[9-methyl-8-(1H-pyrazol-4-yl)-9H-purin-6-yl]oxy}pyrrolidine-1-carboxylate] | >10 |
| CN(C)c1ccc(-c2nc3c(O[C@H]4CCN(C(=O)OC(C)(C)C)C4)ncnc3n2C)cn1 [Compound 1-20, tert-butyl (3S)-3-{[8-(6-(dimethylamino)pyridin-3-yl]-9-methyl-9H-purin-6-yl}oxy)pyrrolidine-1-carboxylate] | >10 |
| Cc1cc2cccc(-c3nc4c(O[C@H]5CCN(C(=O)OC(C)(C)C)C5)ncnc4n3C)c2[nH]1 [Compound 1-21, tert-butyl (3S)-3-{[9-methyl-8-(2-methyl-1H-indol-7-yl)-9H-purin-6-yl]oxy}pyrrolidine-1-carboxylate] | >10 |
| Cn1c(-c2cnn3cccnc23)nc2c(O[C@H]3CCN(C(=O)OC(C)(C)C)C3)ncnc21 [Compound 1-22, tert-butyl (3S)-3-[(9-methyl-8-pyrazolo[1,5-a]pyrimidin-3-yl-9H-purin-6-yl)oxy]pyrrolidine-1-carboxylate] | >10 |
| CC(=O)Nc1ccc(-c2nc3c(O[C@H]4CCN(C(=O)OC(C)(C)C)C4)ncnc3n2C)cc1 [Compound 1-23, tert-butyl (3S)-3-({8-[4-(acetylamino)phenyl]-9-methyl-9H-purin-6-yl}oxy)pyrrolidine-1-carboxylate] | >10 |
